Laboratory results from US20160024108A1, “USE OF DITHIINE-TETRACARBOXIMIDES FOR CONTROLLING BACTERIAL HARMFUL ORGANISMS IN USEFUL PLANTS” (BAYER CROPSCIENCE AKTIENGESELLSCHAFT, priority 2013, published 2016).

System: Pseudomonas syringae pv tomato
Assay: Field trial against bacterial speck on tomato (Spain, 2011), artificial inoculation
Format: in vivo
Conditions: formulation containing 400 g per liter at 500 g ai/ha; in comparison with untreated plots and copper oxychloride standard
Description: A standard experiment was conducted in Spain in 2011 to evaluate the performance of BCS-BB98685 against bacterial speck of tomato caused by the bacteria Pseudomonas syringae pv tomato. Tomato plants were grown under plastic tunnel. Plots were artificially inoculated with a suspension of bacteria and treated with different experimental chemical formulations using a conventional sprayer. Four chemical sprays were applied within 7 days intervals. One artificial inoculation was performed one day after the third application. Disease assessment was done on 3 tomato plants per plot, 11 days after the last application. Infected leaflets were sorted in 3 classes according to a severity scale (Class 1=1 spot/leaflet; Class 2=2-5 spots/leaflet; Class 3=>5 spots/leaflet). Then results were expressed as severity index and transformed in efficacy values using the Abbott formula.

SMILES: Cn1c(=O)c2sc3c(=O)n(C)c(=O)c3sc2c1=O [Compound I-1, 2,6-dimethyl-1H,5H-[1,4]dithiino[2,3-c:5,6-c′]dipyrrole-1,3,5,7(2H,6H)-tetrone]
- level of bacterial infection on tomatoes: significantly reduce the level of bacterial infection on tomatoes
